Measurements from US20080293931A1, “Methods and compositions for the removal of nucleic acid amplification inhibitors” (priority 2006, published 2008).
Read-outs that look alike come from different tables or passages of the source.

Experiments:
[1] = Humic acid (HA) removal from aqueous commercial HA solutions by PIR compounds, fluorimetric HA determination; design: key to ε values: ε = −log(1 − efficiency); efficiency = ([HA]i − [HA]f)/[HA]i; conditions: for Average Efficiency, ε / Avg Reduction Factor: PIR 1 M, aqueous humic samples seeded with E. coli DNA, HAi avg 6,500-12,300 depending on compound (Table 6 c2); for performance as PIR compound (in words): commercial humic acid solutions
Protocol: Humic solutions were in 1×TAE buffer at RT with pH˜7. […] Samples from PIR experiments utilizing these materials were diluted, using 1×TAE, to concentrations falling within the linear response region representative of the humic material used.
In this study, when samples were interrogated for humic acid concentrations via fluorimetry, known concentrations of commercial humic acids were compared to known concentrations of humic standards.
FIG. 1 compares the HA removal from samples containing DNA of interest to the molar concentration of varied PIR compounds by plotting an HA reduction factor as the initial [HA] divided by [HA] following treatment with PIR compounds. The commercially available PIR kit, from Mo-BIO, is placed on FIG. 1 for comparison and was arbitrarily assigned a molar concentration of 1 for convenience. […] The data shown in FIG. 1 were generated from varied initial [HA], ranging from ˜5,000 to 300,000 mg/L HA. These varied initial [HA] values represent a “worst case” scenario and these are in comparison to initial [HA] in extractions from problematic soils generating humic acid concentrations typically less than 5,000 mg/L.
FIG. 2 plots the data from the same experiments represented in FIG. 1, but applying a different approach for data metric. FIG. 2 plots a dimensionless HA removal efficiency (or efficacy) value versus the decade of dilution necessary for successful PCR. The efficiency of HA removal is defined in equation 1 as the initial [HA] minus the final [HA] divided by the initial [HA]. This is essentially a percent removal approach.
Efficiency=[HA]i−[HA]f/[HA]; (1)
To further discriminate efficiency values greater than 0.99, the efficiency was subtracted from the integer value of 1, and the −log was taken of 1-efficiency to generate a non-negative value indicative of HA removal efficiency with greater level of discrimination and resolution of values with high degrees of HA removal. This is described by equation 2.

[2] = test system: E. coli DNA; assay: PCR of seeded E. coli DNA after PIR treatment of aqueous HA samples (decade of dilution necessary for successful PCR); conditions: for Typical dilution decade for PCR / range of dilutions (dilution decade for PCR): PIR 1 M, aqueous humic samples seeded with E. coli DNA, HAi avg 6,500-12,300 depending on compound (Table 6 c2)
Protocol: Consideration of dilution factors for successful PCR must also be reviewed. In untreated soil extracts containing DNA of interest, successful PCR of the extracted DNA may occur when the polymerase inhibitor is diluted sufficiently such that inhibition is suppressed and PCR may occur. Typical values for the dilution decade at which PCR is successful in samples containing humic materials and DNA of interest are often around decade four (1×10^4). Accordingly, a dilution factor of 10,000 would be necessary for successful PCR in a typical soil extract/sample. This magnitude of dilution may also impact PCR sensitivity for DNA/species already present at low concentrations and result in not identifying an organism that was present in the original sample extract.
Using this approach for presenting the HA removal data allows for the determination of a PIR compound's effectiveness for HA removal (ε) and compatibility for application in PCR systems via dilution data for PCR.

[3] = Solubility of PIR compounds in aqueous solution; format: physicochemical; conditions: aqueous solution
[4] = 1M BRT in phosphate buffer, 19 days storage, 4 C., dark, HA avg 10,200 mg/L
[5] = 1M BRT in phosphate buffer, 19 days storage, 25 C., dark, HA avg 10,200 mg/L
[6] = 1M BRT in phosphate buffer, 19 days storage, 25 C., light, HA avg 10,200 mg/L
[7] = 1M BRT in phosphate buffer, 19 days storage, −20 C., dark, HA avg 10,200 mg/L
[8] = 0.1M DTPB in phosphate buffer, 30 days storage, 4 C., dark, HA avg 50,300 mg/L
[9] = 0.1M DTPB in phosphate buffer, 30 days storage, 25 C., dark, HA avg 50,300 mg/L
[10] = 0.1M DTPB in phosphate buffer, 30 days storage, 25 C., light, HA avg 50,300 mg/L
[11] = 0.1M DTPB in phosphate buffer, 30 days storage, −20 C., dark, HA avg 50,300 mg/L
[12] = 1.0M DTPB in phosphate buffer, 30 days storage, 4 C., dark, HA avg 50,300 mg/L
[13] = 1.0M DTPB in phosphate buffer, 30 days storage, 25 C., dark, HA avg 50,300 mg/L
[14] = 1.0M DTPB in phosphate buffer, 30 days storage, 25 C., light, HA avg 50,300 mg/L
[15] = 1.0M DTPB in phosphate buffer, 30 days storage, −20 C., dark, HA avg 50,300 mg/L
[16] = 2M DTPB in phosphate buffer, 30 days storage, 4 C., dark, HA avg 50,300 mg/L
[17] = 2M DTPB in phosphate buffer, 30 days storage, 25 C., dark, HA avg 50,300 mg/L
[18] = 2M DTPB in phosphate buffer, 30 days storage, 25 C., light, HA avg 50,300 mg/L
[19] = 2M DTPB in phosphate buffer, 30 days storage, −20 C., dark, HA avg 50,300 mg/L

In the case of 1-thiazole-2-propanone bromide [BAT], the “Average Efficiency, ε” value [1] is reported as 0.51, the “Avg Reduction Factor” value [1] is reported as 3 and the “performance as PIR compound (in words)” value [1] is reported as “poor performance”. The “Typical dilution decade for PCR” value [2] was 4 and the “range of dilutions (dilution decade for PCR)” value (“range of dilutions” for short) [2] was 3-4.

In the case of `O=C(C[n+]1ccsc1)c1ccccc1` [PTB, Phenacyl Thiazolium Bromide, reference compound], the solubility ([3]; aqueous solutions, read-out: solubility in aqueous solutions (molar solubility)) is reported as < 1000 mM and the solubility ([3]; starred values of column PIR, M (footnote of Table 6), read-out: maximum molar solubility) is reported as 1000 mM.

Compound Bromothiazole [BRT] has a ε values [1, 4] of 1.99, a ε values [1, 5] of 2.45 and a ε values [1, 6] of 2.18. The ε values [1, 7] was 1.36, the “increase of PIR ability (HA reduction factor) on day 19 versus day zero” value ([1]; 1M BRT stored at room temperature, ambient lighting) was ~3 factor and the “increase of PIR ability (HA reduction factor) on day 19” value ([1]; 1M BRT stored at room temperature, kept in the dark) was “greater than 2 factor”. For the same compound, the “Average Efficiency, ε” value [1] was 2.21, the “Avg Reduction Factor” value [1] was 199 and the Decade of dilution [2, 4] was 0. For the same compound, the Decade of dilution [2, 5] was 0, the Decade of dilution [2, 6] was 0 and the Decade of dilution [2, 7] was 0. The “Typical dilution decade for PCR” value [2] was 0, the “range of dilutions” value [2] was 0-3 and the “PCR products imaged after gel electrophoresis (band intensity)” value ([2]; aqueous HA samples seeded with E. coli DNA) was “weak”.

Compound `O=C(C[n+]1ccsc1)C[n+]1ccsc1` [DTPB, 1,3-Dithiazole-2-Propanone Dibromide] has an HA reduction factor [1, 8] of 5, a ε values [1, 8] of 0.70 and an HA reduction factor [1, 9] of 6. The ε values [1, 9] was 0.76, the HA reduction factor [1, 10] was 6 and the ε values [1, 10] was 0.75. For the same compound, the HA reduction factor [1, 11] was 7, the ε values [1, 11] was 0.87 and the HA reduction factor [1, 12] was 143. It also gave a ε values [1, 12] of 2.16, an HA reduction factor [1, 13] of 160 and a ε values [1, 13] of 2.20. It also gave an HA reduction factor [1, 14] of 194, a ε values [1, 14] of 2.29 and an HA reduction factor [1, 15] of 114. The ε values [1, 15] was 2.06, the HA reduction factor [1, 16] was 64 and the ε values [1, 16] was 1.81. It also gave an HA reduction factor [1, 17] of 99, a ε values [1, 17] of 1.99 and an HA reduction factor [1, 18] of 107. The ε values [1, 18] was 2.03, the HA reduction factor [1, 19] was 50 and the ε values [1, 19] was 1.70. The “Average Efficiency, ε” value [1] was 2.18, the “Avg Reduction Factor” value [1] was 153 and the “performance as PIR compound (in words)” value [1] was “poor performance”. It also gave a Decade of dilution [2, 8] of 2, a Decade of dilution [2, 9] of 2 and a Decade of dilution [2, 10] of 2. It also gave a Decade of dilution [2, 11] of 2, a Decade of dilution [2, 12] of 1 and a Decade of dilution [2, 13] of 1. For the same compound, the Decade of dilution [2, 14] was 1, the Decade of dilution [2, 15] was 1 and the Decade of dilution [2, 16] was 1. The Decade of dilution [2, 17] was 1, the Decade of dilution [2, 18] was 1 and the Decade of dilution [2, 19] was 1. The “Typical dilution decade for PCR” value [2] was 2 and the “range of dilutions” value [2] was 1-2.
